From EPA's ToxValDB 9.5

Tested on: Rattus norvegicus
Details: short-term, duration: 28 days, oral, gavage, F, Sprague-Dawley

`O=C(O)C(F)(F)C(F)(F)C(F)(F)C(F)(F)C(F)(F)F` [Perfluorohexanoic acid] gave an NOEL (Clinical chemistry_Free thyroxine) of 1000 mg/kg-day, an LOEL (Clinical chemistry_Globulin) of 1000 mg/kg-day and an NOEL (Clinical chemistry_Indirect bilirubin) of 1000 mg/kg-day. It also gave an NOEL (Clinical chemistry_Sorbitol dehydrogenase) of 1000 mg/kg-day, an NOEL (Clinical chemistry_Testosterone) of 1000 mg/kg-day and an NOEL (Clinical chemistry_Thyroid stimulating hormone) of 1000 mg/kg-day. It also gave an LOEL (Clinical chemistry_Total bile acids) of 1000 mg/kg-day, an LOEL (Clinical chemistry_Total protein) of 1000 mg/kg-day and an NOEL (Clinical chemistry_Total thyroxine) of 1000 mg/kg-day. It also gave an NOEL (Clinical chemistry_Total triiodothyronine) of 1000 mg/kg-day, an NOEL (Clinical chemistry_Triglycerides) of 1000 mg/kg-day and an LOEL (Gene expression_Acox1) of 500 mg/kg-day. It also gave an LOEL (Gene expression_Cyp2b1) of 62.6 mg/kg-day, an LOEL (Gene expression_Cyp2b2) of 62.6 mg/kg-day and an LOEL (Gene expression_Cyp4a1) of 500 mg/kg-day. It also gave an LOEL (Hematology_Erythrocytes) of 250 mg/kg-day, an LOEL (Hematology_Hematocrit) of 250 mg/kg-day and an LOEL (Hematology_Hemoglobin) of 250 mg/kg-day. For the same compound, the LOEL (Hematology_Mean corpuscular hemoglobin concentration) was 1000 mg/kg-day, the LOEL (Hematology_Mean corpuscular volume) was 500 mg/kg-day and the LOEL (Hematology_Platelets) was 1000 mg/kg-day. For the same compound, the LOEL (Hematology_Reticulocytes) was 500 mg/kg-day, the NOEL (Nonneoplastic effects_Bone marrow - Hypocellularity) was 1000 mg/kg-day and the NOEL (Nonneoplastic effects_Forestomach - Epithelium, hyperplasia) was 1000 mg/kg-day. It also gave an NOEL (Nonneoplastic effects_Forestomach - Inflammation, chronic active) of 1000 mg/kg-day, an LOEL (Nonneoplastic effects_Kidney - Nephropathy, chronic progressive) of 1000 mg/kg-day and an NOEL (Nonneoplastic effects_Liver - Hepatocyte, Necrosis) of 1000 mg/kg-day. For the same compound, the LOEL (Nonneoplastic effects_Liver - Hepatocyte, cytoplasmic alteration) was 1000 mg/kg-day, the LOEL (Nonneoplastic effects_Liver - Hepatocyte, hypertrophy) was 1000 mg/kg-day and the NOEL (Nonneoplastic effects_Liver - Hepatocyte, vacuolization cytoplasmic) was 1000 mg/kg-day. The NOEL (Nonneoplastic effects_Lymph nodes - Mandibular, atrophy) was 1000 mg/kg-day, the NOEL (Nonneoplastic effects_Lymph nodes - Mesenteric, atrophy) was 1000 mg/kg-day and the LOEL (Nonneoplastic effects_Nose - Olfactory epithelium, degeneration) was 250 mg/kg-day. For the same compound, the LOEL (Nonneoplastic effects_Nose - Olfactory epithelium, hyperplasia) was 250 mg/kg-day, the LOEL (Nonneoplastic effects_Nose - Olfactory epithelium, inflammation, suppurative) was 500 mg/kg-day and the NOEL (Nonneoplastic effects_Nose - Respiratory epithelium, hyperplasia) was 1000 mg/kg-day. It also gave an NOEL (Nonneoplastic effects_Nose - Respiratory epithelium, inflammation, chronic active) of 1000 mg/kg-day, an NOEL (Nonneoplastic effects_Spleen - Atrophy) of 1000 mg/kg-day and an LOEL (Nonneoplastic effects_Spleen - Extramedullary hematopoiesis, increased) of 1000 mg/kg-day. The NOEL (Nonneoplastic effects_Thymus - Atrophy) was 1000 mg/kg-day, the NOEL (Nonneoplastic effects_Thymus - Lymphocyte, apoptosis) was 1000 mg/kg-day and the NOEL (Nonneoplastic effects_Thyroid gland - Follicular cell hypertrophy) was 1000 mg/kg-day. For the same compound, the LOEL (Organ weights_Liver - Absolute) was 500 mg/kg-day.
